In the supplement of paper PMC8612539:
Converted amounts (≈) assume the structure as drawn.

Tests used:
Mannheimia haemolytica = assay: minimum inhibitory concentration (MIC)
Method: (§1)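 Broth microdilution MIC (Sensititre BOPO7F bovine plate, CLSI methods) of 19 antimicrobials against field isolates of P. multocida, M. haemolytica, H. somni (deep nasopharyngeal swabs) and E. coli, Enterococcus spp. (rectal swabs) from weaned dairy heifers. Incubation 16-24 h at 35 C. MIC is the lowest concentration preventing visible growth. Values with <= or > lie at the tested range limits. Trimethoprim-sulfamethoxazole is given as the trimethoprim component of a 1:19 mixture.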

Enterococcus spp. = assay: minimum inhibitory concentration (MIC)
Method: as §1

CN(C)[C@@H]1C(O)=C(C(N)=O)C(=O)[C@@]2(O)C(O)=C3C(=O)c4c(O)cccc4[C@@](C)(O)[C@H]3C[C@@H]12 [Tetracycline]
minimum inhibitory concentration [µg/mL]
Conditions	Enterococcus spp.	Mannheimia haemolytica
isolate (source animal id): 2	1 (≈ 2.25 µM)	–
isolate (source animal id): 8	–	> 8
isolate (source animal id): 13	–	> 8
isolate (source animal id): 18	–	> 8
isolate (source animal id): 21	–	> 8
isolate (source animal id): 25	–	4 (≈ 9 µM)
isolate (source animal id): 27	–	8 (≈ 18 µM)
isolate (source animal id): 28	–	8 (≈ 18 µM)
isolate (source animal id): 30	–	> 8
isolate (source animal id): 31	–	> 8
isolate (source animal id): 32	–	> 8
isolate (source animal id): 34	–	8 (≈ 18 µM)
isolate (source animal id): 35	> 8	–
isolate (source animal id): 36	–	8 (≈ 18 µM)
isolate (source animal id): 37	–	8 (≈ 18 µM)
isolate (source animal id): 40	–	> 8
isolate (source animal id): 41	–	8 (≈ 18 µM)
isolate (source animal id): 42	> 8	–
isolate (source animal id): 43	–	> 8
isolate (source animal id): 44	> 8	–
isolate (source animal id): 46	–	8 (≈ 18 µM)
isolate (source animal id): 49	–	4 (≈ 9 µM)
isolate (source animal id): 50	–	8 (≈ 18 µM)
isolate (source animal id): 51	–	8 (≈ 18 µM)
isolate (source animal id): 52	–	> 8
isolate (source animal id): 53	–	> 8
isolate (source animal id): 55	–	> 8
isolate (source animal id): 56	–	> 8
isolate (source animal id): 57	–	> 8
isolate (source animal id): 79	> 8	–
isolate (source animal id): 88	1 (≈ 2.25 µM)	–
isolate (source animal id): 91	2 (≈ 4.5 µM)	–
isolate (source animal id): 92	≤ 0.5	–
isolate (source animal id): 100	–	> 8
isolate (source animal id): 103	–	4 (≈ 9 µM)
isolate (source animal id): 107	–	4 (≈ 9 µM)
isolate (source animal id): 108	–	> 8
isolate (source animal id): 111	1 (≈ 2.25 µM)	–
isolate (source animal id): 112	–	> 8
isolate (source animal id): 113	–	> 8
isolate (source animal id): 121	–	8 (≈ 18 µM)
isolate (source animal id): 122	> 8	4 (≈ 9 µM)
isolate (source animal id): 123	> 8	> 8
isolate (source animal id): 126	–	4 (≈ 9 µM)
isolate (source animal id): 133	> 8	> 8
isolate (source animal id): 135	–	> 8
isolate (source animal id): 138	–	4 (≈ 9 µM)
isolate (source animal id): 141	–	> 8
isolate (source animal id): 142	–	> 8
isolate (source animal id): 145	–	4 (≈ 9 µM)
isolate (source animal id): 149	–	≤ 0.5
isolate (source animal id): 151	–	≤ 0.5
isolate (source animal id): 152	–	4 (≈ 9 µM)
isolate (source animal id): 154	–	≤ 0.5
isolate (source animal id): 158	> 8	–
isolate (source animal id): 159	–	4 (≈ 9 µM)
isolate (source animal id): 162	–	4 (≈ 9 µM)
isolate (source animal id): 168	> 8	–
isolate (source animal id): 169	> 8	–
isolate (source animal id): 170	–	8 (≈ 18 µM)
isolate (source animal id): 171	≤ 0.5	≤ 0.5
isolate (source animal id): 172	–	8 (≈ 18 µM)
isolate (source animal id): 173	–	8 (≈ 18 µM)
isolate (source animal id): 175	> 8	–
isolate (source animal id): 177	> 8	–
isolate (source animal id): 179	–	4 (≈ 9 µM)
isolate (source animal id): 180	–	4 (≈ 9 µM)
isolate (source animal id): 181	> 8	–
isolate (source animal id): 182	> 8	–
isolate (source animal id): 183	> 8	4 (≈ 9 µM)
isolate (source animal id): 186	–	4 (≈ 9 µM)
isolate (source animal id): 187	> 8	4 (≈ 9 µM)
isolate (source animal id): 188	–	4 (≈ 9 µM)
isolate (source animal id): 190	> 8	≤ 0.5
isolate (source animal id): 191	–	8 (≈ 18 µM)
isolate (source animal id): 192	–	≤ 0.5
isolate (source animal id): 194	≤ 0.5	–
isolate (source animal id): 195	> 8	–
isolate (source animal id): 197	> 8	–
isolate (source animal id): 201	–	8 (≈ 18 µM)
isolate (source animal id): 202	–	4 (≈ 9 µM)
isolate (source animal id): 209	–	8 (≈ 18 µM)
isolate (source animal id): 211	> 8	≤ 0.5
isolate (source animal id): 214	> 8	–
isolate (source animal id): 220	–	8 (≈ 18 µM)
isolate (source animal id): 221	–	4 (≈ 9 µM)
isolate (source animal id): 222	> 8	–
isolate (source animal id): 223	≤ 0.5	4 (≈ 9 µM)
isolate (source animal id): 228	> 8	–
isolate (source animal id): 230	> 8	–
isolate (source animal id): 233	–	4 (≈ 9 µM)
isolate (source animal id): 235	> 8	–
isolate (source animal id): 236	≤ 0.5	–
isolate (source animal id): 237	–	≤ 0.5
isolate (source animal id): 239	≤ 0.5	–
isolate (source animal id): 241	> 8	8 (≈ 18 µM)
isolate (source animal id): 244	≤ 0.5	–
isolate (source animal id): 246	> 8	–
isolate (source animal id): 247	> 8	–
isolate (source animal id): 250	> 8	–
isolate (source animal id): 252	> 8	4 (≈ 9 µM)
isolate (source animal id): 253	–	> 8
isolate (source animal id): 259	–	8 (≈ 18 µM)
isolate (source animal id): 260	–	> 8
isolate (source animal id): 262	–	4 (≈ 9 µM)
isolate (source animal id): 268	1 (≈ 2.25 µM)	–
isolate (source animal id): 282	≤ 0.5	4 (≈ 9 µM)
isolate (source animal id): 285	≤ 0.5	–
isolate (source animal id): 287	–	8 (≈ 18 µM)
isolate (source animal id): 288	–	≤ 0.5
isolate (source animal id): 289	≤ 0.5	–
isolate (source animal id): 290	≤ 0.5	–
isolate (source animal id): 291	–	≤ 0.5
isolate (source animal id): 293	–	4 (≈ 9 µM)
isolate (source animal id): 296	≤ 0.5	–
isolate (source animal id): 298	> 8	> 8
isolate (source animal id): 299	–	> 8
isolate (source animal id): 300	–	≤ 0.5
isolate (source animal id): 301	≤ 0.5	–
isolate (source animal id): 302	–	> 8
isolate (source animal id): 304	–	> 8
isolate (source animal id): 306	–	≤ 0.5
isolate (source animal id): 308	–	≤ 0.5
isolate (source animal id): 309	–	≤ 0.5
isolate (source animal id): 310	> 8	–
isolate (source animal id): 313	–	4 (≈ 9 µM)
isolate (source animal id): 318	–	4 (≈ 9 µM)
isolate (source animal id): 320	> 8	≤ 0.5
isolate (source animal id): 321	–	4 (≈ 9 µM)
isolate (source animal id): 323	–	> 8
isolate (source animal id): 324	–	8 (≈ 18 µM)
isolate (source animal id): 326	–	4 (≈ 9 µM)
isolate (source animal id): 328	–	8 (≈ 18 µM)
isolate (source animal id): 329	–	4 (≈ 9 µM)
isolate (source animal id): 331	≤ 0.5	–
isolate (source animal id): 333	≤ 0.5	4 (≈ 9 µM)
isolate (source animal id): 335	–	4 (≈ 9 µM)
isolate (source animal id): 338	–	4 (≈ 9 µM)
isolate (source animal id): 341	> 8	–
